From patent publication US9919058B2, “Polyketal particles including a CpG oligodeoxynucleotide for the treatment of lung cancer” (THE UNITED STATES OF AMERICA, as represented by the …, priority 2014, dated 2018)
Like-named read-outs stand apart in the source and are kept apart here.

How the values were obtained:
[1] = mouse, in vivo
Protocol: Biodistribution of CpG ODN. LLC were implanted as described in FIG. 1. […] Tissue samples were stained to identify macrophages (red F4/80^+), DC (red CD205^+) or CpG (green) and analyzed by confocal microscopy.
Immunohistochemistry and Immunofluorescent Analysis: Tissue sections were deparaffinized with xylene and rehydrated with graded ethanol. Endogenous peroxidase activity was blocked by incubation with 0.3% H2O2 in methanol for 30 min followed by Protein Block (Dako, Carpinteria, Calif.). […] Isotype matched negative controls were included to insure specificity.
For immunohistochemistry, stained sections were incubated with HRP-conjugated anti-rat or rabbit IgG (simple stain mouse Max Po; Nichirei, Tokyo, Japan) plus 3-amino-9-ethyl carbazole (AEC) substrate for color development (Nichirei). The sections were counterstained with Mayer's hematoxylin (Dako) and images were obtained using an IX50 inverted microscope equipped with digital imaging system (Olympus, Center Valley, Pa.). […] Cell nuclei were visualized with DAPI (Vector). […] Fluorescent images were acquired with a laser-scanning confocal microscope (LSM 510; Zeiss, Thronwood, N.Y.), equipped with a 63x/1.4NA oil objective.

[2] = tested on: Lewis lung carcinoma (LLC1) cells
Protocol: Treatment Protocols and Tumor Cell Implantation: C57BL/6, TLR9 KO and Rag1 KO mice were obtained from the National Cancer Institute (Frederick, Md.) and studied at 5-6 wk of age. […] On the day of inoculation, cultured cells were trypsinized, washed and suspended in 0.9% saline.
One week later, free ODN or ODN-NP were administered either systemically (i.p.) or locally (i.t.). Instillation was achieved via orotracheal intubation using a 20 gauge 1″ catheter (TERUMO, Somerset, N.J.) under anesthesia. Survival curves were generated from 4-6 mice per group and all results derived by combining data from 2-4 independent experiments. All animals were monitored 3×/wk and moribund mice euthanized as per Institutional Animal Care and Use Committee protocol.
Statistical Analysis: Statistical analyses were performed using MedCalc, version 13.0 (MedCalc Software, Mariakerke, Belgium). Differences in survival were determined using the log rank test of Kaplan-Meier. Differences between groups were assessed using a one-way ANOVA followed by Student-Newman-Keuls post-hoc test. […] All values are expressed as mean±SE.

Immune Cells = assay: BAL cellularity and IL-12 after i.t. delivery to normal mice; format: in vivo; settings: 50 μg i.t., BAL 2 days later
Protocol: FIGS. 4A-4B. Activity of CpG-NP (aggregates provided microprticles “MP’) in vivo. 50 μg of CpG ODN (free or adsorbed onto NP) was administered i.t. to normal mice. BAL was collected and analyzed for (4A) cellularity and (4B) IL-12 levels 2 days later.
Tissue Collection and Evaluation of Tumor Development: Bronchoalveolar lavage (BAL) fluid was obtained by tracheal cannulation of anesthetized mice. Cell differentials were performed on cytocentrifuged BAL preparations after fixation and staining with Diff-Quick (Dade Behring, Newark, Del.).
IL-12 levels in BAL and serum were determined by ELISA. Lungs were inflated and fixed by instilling 1 mL of 10% neutral-buffered formalin or periodate lysine paraformaldehyde (PLP) fixative (Wako Chemicals USA, Inc. Richmond, Va.) at 20 cm H2O. Fixed tissue was embedded in paraffin, sectioned, and stained with hematoxylin and eosin for histopathological assessment. Tumor area was evaluated in mid-line sections and quantified using Image J software ver.1.48 (National Institute of Health, Bethesda, Md.).
ELISA: Cytokine levels in BAL, serum, and culture supernatants were measured by ELISA as previously described (Klinman et al., PNAS 1996; 93:2879-2883). […] Samples were added and bound cytokine detected by the addition of biotin-labeled secondary Ab, followed by phosphatase-conjugated avidin and a phosphatase-specific colorimetric substrate. […]

[3] = in vivo; cited from earlier work
advanced NSCLC = settings: cited from earlier work
Lewis lung cancer = settings: CpG ODN in combination with chemotherapy; cited from earlier work
[4] = tested on: Spleen cells from WT or TLR9 KO mice; assay: In vitro stimulation of spleen cells (CCK-8 proliferation; IL-6/IL-12 ELISA); format: cell-based
Protocol: FIGS. 2A-2C. In vitro activity of CpG-NP (aggregates provided microprticles “MP’). Spleen cells from WT or TLR9 KO mice were cultured with 1 μM of free or NP adsorbed CpG ODN or 1 μg/mL of R837 (TLR7 ligand). 2A) Cell proliferation after 72 hr. 2B, 2C) IL-12 and IL-6 production after 24 hr.
In Vitro Cell Proliferation Assay: Single spleen cell suspensions were prepared. 5×10^4 cells/well were cultured in 96-well flat bottomed microtiter plates in complete RPMI 1640 medium supplemented with 10% fetal calf serum, 100 U/mL penicillin, […], […], 1.0 mmol/L sodium pyruvate, NEAA, and 0.0035% 2-ME. The cells were stimulated free ODN, ODN-NP, or R837 (TLR7 agonist) for 72 hr. Cell proliferation was assessed using the CCK-8 assay as per manufacturer's recommendation (Dojindo molecular technologies, Inc. Rockville, Md.).
ELISA: Cytokine levels in BAL, serum, and culture supernatants were measured by ELISA as previously described (Klinman et al., PNAS 1996; 93:2879-2883). Briefly, paired IL-6 and IL-12-specific mAbs were purchased from BD Pharmingen. Ninety-six-well Immulon H2B plates (Thermo LabSystems, Beverly, Mass.) were coated with capture cytokine-specific Abs and then blocked with PBS/1% BSA. Samples were added and bound cytokine detected by the addition of biotin-labeled secondary Ab, followed by phosphatase-conjugated avidin and a phosphatase-specific colorimetric substrate. Standard curves were generated using recombinant cytokines purchased from R&D Systems (Minneapolis, Minn.).

large established tumor = settings: 3M-052 co-delivered with CpG ODN into the tumor site; tumor size over 500 mm(3); cited from earlier work
Rat = settings: in vivo, po; cited from earlier work

For GCTAGACGTTAGCGT [CpG ODN], the “clearance from the lungs” value [1] was “rapidly cleared from the lungs”, the localisation in lung [1] was “detected throughout the mucosal surface of the bronchial tree” and the “localisation/persistence in lung and tumor” value [1] was “little of this material remained in the bronchi or could be detected in the tumor”. The median survival time ([2]; 50 μg i.t. weekly for one month from day 7, C57BL/6, untreated 22 days) was 38 days, the “HR (survival vs No Rx)” value ([2]; dose of ODN 10 μg) was 0.33 and the long term survival ([2]; dose of ODN 10 μg weekly for one month) was under 40%. For the same molecule, the long term survival ([2]; dose of ODN 50 μg weekly for one month) was over 80%, the toxicity ([2]; dose of ODN 100 μg) was “evidence of toxicity (pulmonary inflammation and weight loss)” and the “HR (survival vs No Rx)” value ([2]; intra-tracheal (i.t.) delivery, 50 μg) was 0.28. For the same molecule, the “tumors on re-challenge of survivors with LLC” value ([2]; survivors of therapy re-challenged) was “no tumors arose”, the “HR (survival vs No Rx)” value ([2]; systemic (i.p.) delivery) was 0.55 and the “effect on survival” value ([2]; systemic (i.p.) delivery) was “modest but statistically insignificant survival benefit”. For the same molecule, the “pulmonary IL-12 levels” value (Immune Cells) was “significant increase in pulmonary IL-12 levels”, the “rise in BAL cellularity vs saline” value (Immune Cells; normal mice) was “≈ 25%” and the “mean t1/2” value [3] was “≈ 12 h”. The median tmax [3] was 2 h, the objective response rate (advanced NSCLC; patients who received CpG ODN, chemotherapy alone 19-23%) was 28-30% and the “survival benefit in phase 3 trials” value (advanced NSCLC; patients with NSCLC, phase 3) was “no survival benefit was observed”. For the same molecule, the effect on survival (Lewis lung cancer) was “significantly prolonged survival”, the “response of cells from TLR9 KO mice” value ([4]; TLR9 KO spleen cells) was “failed to respond” and the “IL-6 and IL-12 secretion” value ([4]; WT spleen cells, 1 μM, 24 hr) was “induced WT cells to secrete IL-6 and IL-12”. For the same molecule, the cell proliferation ([4]; WT spleen cells, 1 μM, 3 days (72 hr)) was “proliferate over 3 days” and the “relative effectiveness of free CpG vs CpG-NP” value ([4]; WT spleen cells, 24 hr vs 3 days of culture) was “more effective at the earlier time point”.
In the case of `CCCCCCCCCCCCCCCCCC(=O)NCCCCOn1c(CCCC)nc2c(N)nc3ccccc3c21` [3M-052, N-(4-{[4-amino-2-butyl-1H-imidazo[4,5-c]quinolin-1-yl]oxy}butyl) octadecanamide], the “effect on established tumor” value (large established tumor) is given as “eliminated the large established tumor”.
For `OCC1CCC(CO)CC1` (centres unmarked) [1,4-cyclohexanedimethanol], the LD50 (Rat) is listed as 3,200 mg/kg.
In the case of “GCTAGAGCTTAGCGT [control ODN, reference compound]”, the “effect on survival” value ([2]; i.t. delivery) is reported as “no effect”.
